Experimental data: paper PMC10791743, “Selective CK1α degraders exert antiproliferative activity against a broad range of human cancer cell lines” (Nature Communications, 2024)

How the values were obtained:
102 cell lines [1] = assay: Oncolines viability of 120 reference anti-cancer agents; assay type: cell-based, human
Procedure: Pearson correlations were calculated between SJ3149 ^10log IC50 values and those of the 120 reference agents, to determine the similarity of compound IC50 fingerprints.

102 cell lines [2] = details: cited from earlier work
102 cell lines [3] = assay: Oncolines viability of 120 reference anti-cancer agents; assay type: cell-based, human; remark: listed apart in the source

For `COc1ccc(C2=N[C@@H](c3ccc(Cl)cc3)[C@@H](c3ccc(Cl)cc3)N2C(=O)N2CCNC(=O)C2)c(OC(C)C)c1` [Nutlin-3a], the IC50 (102 cell lines [1]; G-361, Melanoma) was 2.53 µM, the IC50 (102 cell lines [1]; JAR, Gestational choriocarcinoma) was 7.25 µM and the IC50 (102 cell lines [1]; KG-1, Adult acute myeloid leukemia) was > 31.6 µM. The IC50 (102 cell lines [1]; MOLT-4, Adult T acute lymphoblastic leukemia) was 2.87 µM, the IC50 (102 cell lines [1]; NCI-H460, Large cell lung carcinoma) was 4.2 µM and the IC50 (102 cell lines [1]; RL, Diffuse large B-cell lymphoma, TP53 Mutant) was > 31.6 µM. The IC50 (102 cell lines [1]; SNU-C2B, Cecum adenocarcinoma, TP53 Mutant) was > 31.6 µM, the IC50 (102 cell lines [1]; SR, Anaplastic large cell lymphoma, TP53 Mutant) was 2.04 µM and the IC50 (102 cell lines [1]; SW948, Colon adenocarcinoma, TP53 Mutant) was > 31.6 µM. For the same compound, the IC50 (102 cell lines [1]; cell line ACHN, Papillary renal cell carcinoma, TP53 Wild-type) was 3.3 µM, the IC50 (102 cell lines [1]; cell line AsPC-1, Pancreatic ductal adenocarcinoma, TP53 Mutant) was > 31.6 µM and the IC50 (102 cell lines [1]; cell line Daoy, Medulloblastoma, TP53 Mutant) was > 31.6 µM. For the same compound, the IC50 (102 cell lines [1]; cell line TT (Hereditary thyroid gland medullary carcinoma), TP53 Wild-type) was 7.4 µM, the IC50 (102 cell lines [1]; cell line U-2 OS (Osteosarcoma), TP53 Wild-type) was 13.3 µM and the “Potency in responsive cell lines” value (102 cell lines [2]) was “micromolar potency”. The IC50 (102 cell lines [3]; FaDu, Hypopharyngeal squamous cell carcinoma) was > 31.6 µM, the IC50 (102 cell lines [3]; HCT 116, Colon carcinoma) was 4.55 µM and the IC50 (102 cell lines [3]; HCT-15, Colon adenocarcinoma) was > 31.6 µM. For the same compound, the IC50 (102 cell lines [3]; HL-60, Adult acute myeloid leukemia) was > 31.6 µM, the IC50 (102 cell lines [3]; HT-1080, Fibrosarcoma) was 2.06 µM and the IC50 (102 cell lines [3]; HT, Diffuse large B-cell lymphoma) was > 31.6 µM. The IC50 (102 cell lines [3]; Hs 578T, Invasive ductal carcinoma) was > 31.6 µM, the IC50 (102 cell lines [3]; Hs 746T, Gastric adenocarcinoma) was > 31.6 µM and the IC50 (102 cell lines [3]; Hs 766T, Pancreatic adenocarcinoma) was > 31.6 µM. The IC50 (102 cell lines [3]; HuTu 80, Duodenal adenocarcinoma) was 3.91 µM, the IC50 (102 cell lines [3]; J82, Bladder carcinoma) was > 31.6 µM and the IC50 (102 cell lines [3]; Jurkat E6.1, Childhood T acute lymphoblastic leukemia) was > 31.6 µM. For the same compound, the IC50 (102 cell lines [3]; K-562, Chronic myelogenous leukemia) was > 31.6 µM, the IC50 (102 cell lines [3]; KATO III, Signet ring cell gastric adenocarcinoma) was 29.3 µM and the IC50 (102 cell lines [3]; KLE, Endometrial adenocarcinoma) was > 31.6 µM. For the same compound, the IC50 (102 cell lines [3]; KU812, Chronic myelogenous leukemia) was > 31.6 µM, the IC50 (102 cell lines [3]; LNCaP FGC, Prostate carcinoma) was 10.9 µM and the IC50 (102 cell lines [3]; LS 174T, Colon adenocarcinoma) was 3.7 µM. For the same compound, the IC50 (102 cell lines [3]; LS411N, Cecum adenocarcinoma) was > 31.6 µM, the IC50 (102 cell lines [3]; LoVo, Colon adenocarcinoma) was 10.2 µM and the IC50 (102 cell lines [3]; MCF7, Invasive ductal carcinoma) was 11.4 µM. The IC50 (102 cell lines [3]; MG-63, Osteosarcoma) was > 31.6 µM, the IC50 (102 cell lines [3]; MIA PaCa-2, Pancreatic ductal adenocarcinoma) was > 31.6 µM and the IC50 (102 cell lines [3]; MeWo, Melanoma) was > 31.6 µM. For the same compound, the IC50 (102 cell lines [3]; NCCIT, Testicular embryonal carcinoma) was > 31.6 µM, the IC50 (102 cell lines [3]; NCI-H82, Small cell lung carcinoma) was > 31.6 µM and the IC50 (102 cell lines [3]; NCI-H661, Large cell lung carcinoma) was > 31.6 µM. For the same compound, the IC50 (102 cell lines [3]; OVCAR-3, High grade ovarian serous adenocarcinoma, TP53 Mutant) was > 31.6 µM, the IC50 (102 cell lines [3]; PA-1, Ovarian mixed germ cell tumor, TP53 Wild-type) was 2.31 µM and the IC50 (102 cell lines [3]; PC-3, Prostate carcinoma, TP53 Mutant) was > 31.6 µM. For the same compound, the IC50 (102 cell lines [3]; PFSK-1, Primitive neuroectodermal tumor, TP53 Mutant) was > 31.6 µM, the IC50 (102 cell lines [3]; RD, Embryonal rhabdomyosarcoma, TP53 Mutant) was > 31.6 µM and the IC50 (102 cell lines [3]; RKO, Colon carcinoma, TP53 Wild-type) was 15.7 µM. The IC50 (102 cell lines [3]; RL95-2, Endometrial adenosquamous carcinoma, TP53 Mutant) was 24.6 µM, the IC50 (102 cell lines [3]; RPMI-7951, Melanoma, TP53 Mutant) was > 31.6 µM and the IC50 (102 cell lines [3]; RS4-11, Adult B acute lymphoblastic leukemia, TP53 Wild-type) was 4.71 µM. For the same compound, the IC50 (102 cell lines [3]; RT4, Bladder carcinoma, TP53 Wild-type) was 7.03 µM, the IC50 (102 cell lines [3]; SHP-77, Small cell lung carcinoma, TP53 Mutant) was 27.3 µM and the IC50 (102 cell lines [3]; SJCRH30, Alveolar rhabdomyosarcoma, TP53 Mutant) was > 31.6 µM. The IC50 (102 cell lines [3]; SK-N-AS, Neuroblastoma, TP53 Wild-type) was > 31.6 µM, the IC50 (102 cell lines [3]; SK-N-FI, Neuroblastoma, TP53 Mutant) was > 31.6 µM and the IC50 (102 cell lines [3]; SNU-5, Gastric carcinoma, TP53 Mutant) was > 31.6 µM. For the same compound, the IC50 (102 cell lines [3]; SU-DHL-1, Anaplastic large cell lymphoma, TP53 Mutant) was 30.7 µM, the IC50 (102 cell lines [3]; SU-DHL-6, Diffuse large B-cell lymphoma, TP53 Mutant) was 23.4 µM and the IC50 (102 cell lines [3]; SUP-T1, Childhood T lymphoblastic lymphoma, TP53 Mutant) was > 31.6 µM. The IC50 (102 cell lines [3]; SW48, Colon adenocarcinoma, TP53 Wild-type) was 7.63 µM, the IC50 (102 cell lines [3]; SW480, Colon adenocarcinoma, TP53 Mutant) was > 31.6 µM and the IC50 (102 cell lines [3]; SW620, Colon adenocarcinoma, TP53 Mutant) was 13.6 µM. For the same compound, the IC50 (102 cell lines [3]; SW626, Colon adenocarcinoma, TP53 Mutant) was > 31.6 µM, the IC50 (102 cell lines [3]; SW837, Rectal adenocarcinoma, TP53 Mutant) was > 31.6 µM and the IC50 (102 cell lines [3]; SW872, Liposarcoma, TP53 Mutant) was > 31.6 µM. The IC50 (102 cell lines [3]; SW900, Squamous cell lung carcinoma, TP53 Mutant) was > 31.6 µM, the IC50 (102 cell lines [3]; SW982, Biphasic synovial sarcoma, TP53 Wild-type) was 3.11 µM and the IC50 (102 cell lines [3]; T24, Bladder carcinoma, TP53 Mutant) was > 31.6 µM. The IC50 (102 cell lines [3]; T98G, Glioblastoma, TP53 Mutant) was > 31.6 µM, the IC50 (102 cell lines [3]; cell line 769-P, Renal cell carcinoma, TP53 Wild-type) was 5.52 µM and the IC50 (102 cell lines [3]; cell line 786-O, Renal cell carcinoma, TP53 Mutant) was 13.4 µM. The IC50 (102 cell lines [3]; cell line 5637, Bladder carcinoma, TP53 Mutant) was > 31.6 µM, the IC50 (102 cell lines [3]; cell line A375, Amelanotic melanoma, TP53 Wild-type) was 6.9 µM and the IC50 (102 cell lines [3]; cell line A388, Squamous cell carcinoma, TP53 Mutant) was > 31.6 µM. The IC50 (102 cell lines [3]; cell line A-172, Glioblastoma, TP53 Wild-type) was 11.5 µM, the IC50 (102 cell lines [3]; cell line A-204, Embryonal rhabdomyosarcoma, TP53 Wild-type) was 3.06 µM and the IC50 (102 cell lines [3]; cell line A-427, Lung adenocarcinoma, TP53 Wild-type) was 5.36 µM. For the same compound, the IC50 (102 cell lines [3]; cell line A-498, Renal cell carcinoma, TP53 Wild-type) was 5.59 µM, the IC50 (102 cell lines [3]; cell line A-549, Lung adenocarcinoma, TP53 Wild-type) was 6.56 µM and the IC50 (102 cell lines [3]; cell line A-704, Renal cell carcinoma, TP53 Mutant) was > 31.6 µM. The IC50 (102 cell lines [3]; cell line AN3 CA, Endometrial adenocarcinoma, TP53 Mutant) was > 31.6 µM, the IC50 (102 cell lines [3]; cell line AU-565, Breast adenocarcinoma, TP53 Mutant) was > 31.6 µM and the IC50 (102 cell lines [3]; cell line BT-20, Invasive ductal carcinoma, TP53 Mutant) was > 31.6 µM. The IC50 (102 cell lines [3]; cell line BT-549, Invasive ductal carcinoma, TP53 Mutant) was > 31.6 µM, the IC50 (102 cell lines [3]; cell line BxPC-3, Pancreatic ductal adenocarcinoma, TP53 Mutant) was > 31.6 µM and the IC50 (102 cell lines [3]; cell line C-33 A, Cervical squamous cell carcinoma, TP53 Mutant) was > 31.6 µM. The IC50 (102 cell lines [3]; cell line CAL 27, Tongue squamous cell carcinoma, TP53 Mutant) was > 31.6 µM, the IC50 (102 cell lines [3]; cell line CCF-STTG1, Astrocytoma, TP53 Wild-type) was 7.17 µM and the IC50 (102 cell lines [3]; cell line CCRF-CEM, Childhood T acute lymphoblastic leukemia, TP53 Mutant) was > 31.6 µM. The IC50 (102 cell lines [3]; cell line COLO 205, Colon adenocarcinoma, TP53 Mutant) was > 31.6 µM, the IC50 (102 cell lines [3]; cell line COLO 829, Cutaneous melanoma, TP53 Wild-type) was 15.6 µM and the IC50 (102 cell lines [3]; cell line DB, Diffuse large B-cell lymphoma, TP53 Mutant) was 28.6 µM. The IC50 (102 cell lines [3]; cell line DLD-1, Colon adenocarcinoma, TP53 Mutant) was > 31.6 µM, the IC50 (102 cell lines [3]; cell line DU 145, Prostate carcinoma, TP53 Mutant) was > 31.6 µM and the IC50 (102 cell lines [3]; cell line DU4475, Breast carcinoma, TP53 Wild-type) was 4.62 µM. The IC50 (102 cell lines [3]; cell line DoTc2 4510, Cervical carcinoma, TP53 Wild-type) was > 31.6 µM, the IC50 (102 cell lines [3]; cell line ES-2, Ovarian clear cell adenocarcinoma, TP53 Mutant) was > 31.6 µM and the IC50 (102 cell lines [3]; cell line TCCSUP (Bladder carcinoma), TP53 Mutant) was > 31.6 µM. For the same compound, the IC50 (102 cell lines [3]; cell line THP-1 (Childhood acute monocytic leukemia), TP53 Mutant) was > 31.6 µM, the IC50 (102 cell lines [3]; cell line U-87 MG (Glioblastoma), TP53 Wild-type) was 4.37 µM and the IC50 (102 cell lines [3]; cell line U-118 MG (Astrocytoma), TP53 Mutant) was > 31.6 µM. The IC50 (102 cell lines [3]; cell line VA-ES-BJ (Epithelioid sarcoma), TP53 Wild-type) was 1.73 µM.
